Reference: patent publication EP0579806B1, “MEDICAMENT FOR THE TREATMENT AND/OR PROPHYLAXIS OF FOLATE METABOLISM DISORDERS” (Kragler, Peter, priority 1992, dated 1993)

Experiment: Red blood count and megakaryocyte function before and after therapy in HIV-positive patients
Type: in vivo, Mensch
Conditions: patients pretreated with a chain terminator, before therapy
Description: Folgende Laborparameter wurden vor und nach der Therapie an 23 HIV-positiven Patienten mit verschiedener klinischer Symptomatik bestimmt: • 1. Rotes Blutbild und Megakaryozytenfunktion • 2. Weißes Blutbild und Lymphozytensubpopulation • 3. Lymphozytenstimulation • 4. Proteine • a) Gesamteiweiß • b) Elektrophorese • c) Immunelektrophorese • d) zirkulierende Immunkomplexe (CIC) • 5. B12-Gehalt • a) Serum pg/ml • b) Erythrozyten pg/ml Zellen • c) mononukleäre Zellen pg/ml Zellen • 6. Folat-Gehalt • a) Serum ng/ml • b) Erythrozyten ng/ml Zellen • c) mononukleäre Zellen ng/ml Zellen • 7. HIV (Elisa) in Titerstufen • 8. HIV - Westernblot (P24-core, P55-gag, gP41-env, gP120-env, gP160-env) mit Bewertung der Banden von + bis ++++ • 9. β2-Mikroglobulin korreliert • a) mit der Aktivität der NK-Zellen (ADCC = antibody dependent cellmediated cytotoxicity) • b) mit der Aktivität der CD8- NK-Zellen • 10. Neopterin Zwischenprodukt der Reaktion GPT (Guanosintriphosphat) --> Tetrahydrobiopterin (Hydroxylierung von Phenylalanin, Tyrosin und Tryptophan) Die Bedeutung von Neopterin ist zur Zeit noch Gegenstand wissenschaftlicher Untersuchungen. • 11. Lysozym (Muramidase) Messung der Granulozytenaktivität • 12. Serologie sexuell übertragbarer Krankheiten (STD) […]

SMILES: Cc1cn([C@H]2C[C@H](N=[N+]=[N-])[C@@H](CO)O2)c(=O)[nH]c1=O [AZT, Azidothymidin]
- makrozytäre, hyperchrome Anämie (MCV, Hbe erhöht): noch ausgeprägter
